| SMILES | melting point [°C] |
| --- | --- |
| CN1CCN(c2cc3c(cc2F)C(=O)c2nc4ccccc4c(=O)n2-3)CC1 | 257 to 258 |
| Fc1ccc(-c2[nH]c(C3CCCNC3)nc2-c2ccncc2)cc1 (centres undefined) | 252 to 254 |
| CC1(C)Oc2cc(N)c([N+](=O)[O-])cc2O1 | 128 to 129 |
| O=C(NCc1ccccn1)OCCOCCOC(=O)NCC1CCCCC1 | 65 to 67 |
| COc1cc(CO)c(CO)cc1OCCCl | 93 to 94 |
| O=C1Nc2cc(F)ccc2N2CCN(Cc3ccncc3)CC12 (centres undefined) | 269 to 272 |
| CCOc1nccnn1 | 95 to 99 |
| CCCCc1nc2c(N)nc3ccccc3c2n1CC1(O)CCOCC1 | 235 to 236 |
| Cc1cc2nc3c(nc2cc1[N+](=O)[O-])SC(=C(C#N)C#N)S3 | 283 to 284 |
| COc1ccc(N(C)CC2CCOCC2)cc1N | 97 to 99 |
| O=C1C(=O)c2ccc(-c3ccc(C(F)(F)F)cc3)cc2C2=C1SCC1(CCNCC1)O2 | 190 to 240 |
| CCCCCCCCCCCCCCCCCCOc1cc(N(CC(=O)O)CC(=O)O)cc(S(C)=O)c1 (centres undefined) | 147 to 149 |
| Cc1onc(-c2ccccc2)c1COc1ccc(-c2cc(O)c(SCCc3ccccc3)c(=O)o2)cc1 | 126 to 128 |
| N#Cc1nn(-c2c(Cl)cc(C(F)(F)F)cc2Cl)cc1C1CC1(Br)Br (centres undefined) | 121 to 123 |
| CCOC(=O)CCC(=NOCc1ccc(OCc2nc(-c3ccccc3)oc2C)cc1)c1ccc(Oc2ccccc2)cc1 | 118 to 119 |
| COc1cc(C)nc(OC)c1NC(=O)CN1CCN(CCSc2nc3ccccc3o2)CC1 | 113 to 115 |
| CC(C)n1c(=O)[nH]oc1=O | 150 |
| Clc1cccc(Oc2ncccc2C2=NC(c3ccccc3)CO2)c1 (centres undefined) | 78 to 80 |
| O=C(O)CCCCCCCCN1NNN=C1C(c1ccccc1)c1ccccc1 | 68 to 70 |
| CC(C)Nc1c(-c2c(F)cc(F)cc2F)c(Cl)nc2nncn12 | 268 to 273 |
| CCCc1c(O)c(Cl)cc(C(=O)OC)c1O | 75 to 76 |
| CC(C)c1nc(C(C)C)c(CNC2CCCCC2)c(-c2ccc(F)cc2)c1CO | 131 to 133 |
| CS(=O)(=O)NC(=O)c1cccc([N+](=O)[O-])c1 | 175 to 178 |
| O=C(O)c1ccc(C(F)(F)C(F)(F)F)cc1[N+](=O)[O-] | 124 to 135 |
| CCCCCCCCCCCCCCC(=O)NC1CC(C)(C)N(CC#N)C(C)(C)C1 | 101 |
| COC(=O)NC1CCc2sccc2C1 (centres undefined) | 108 to 109 |
| CC(=O)OCc1ccc(CC(C)NCC(O)c2ccccc2)cc1 (centres undefined) | 78 to 82 |

| SMILES | melting point [°C] |
| --- | --- |
| CCCCCCCCCCCCCCCCOc1c2ncnc(SCC(=O)OCCCC)c2nn1C | 64 to 67 |
| N#Cc1ccc2c(c1)C=C(C(=O)O)C(C(F)(F)F)N2 (centres undefined) | 238 to 240 |
| CCC(C)NCc1nc(-c2ccc(OC)c(OC)c2)c2cc(OC)c(OC)cc2n1 (centres undefined) | 118 to 120 |
| O=C1NC(=O)C2(c3cc(O)c(Cl)cc3F)CCCCC12 (centres undefined) | 140 to 141 |
| O=S1(=O)CC(c2ccc(F)cc2)CN1 (centres undefined) | 155 |
| N#Cc1ccc(Cn2cncc2CN2CCC3(CC2)C(=O)Nc2ccccc23)cc1 | 245 to 247 |
| O=C(N[C@H]1CC[C@H](CCN2CCN(c3nccc4c3OCC4)CC2)CC1)C(F)(F)F | 198 |
| O=C1NCC(CCc2ccccc2)O1 (centres undefined) | 82 to 83 |
| O=C(O)c1ccccc1N1CCN(CC(O)COc2ccc3c(c2)OCO3)CC1 (centres undefined) | 229 to 231 |
| CSC(=NCCN(C)C)NC#N | 94 to 95 |
| Cc1ccc(S(=O)(=O)N(Cc2ccccc2)N(C)C(=O)C2CC(S)CN2S(=O)(=O)c2ccc3ccccc3c2)cc1 (centres undefined) | 82.5 |
| Cc1cc2c3c(ccn2n1)CCC3CCNC(=O)C1CC1 (centres undefined) | 112 to 113 |
| CCC1C2C3Cc4ccc(OC)c5c4C2(CCN3C)C(O5)C(O)C1(C)C (centres undefined) | 104 to 108 |
| COC(=O)[C@@H]1CC[C@@H]2CN1C(=O)N2OCc1ccccc1 | 86 |
| COc1ccc(S(=O)(=O)N(CCC(=O)N2CCC(C(=O)O)CC2)C(CC(C)C)C(=O)NO)cc1 (centres undefined) | 118 to 120 |
| NC(=S)C(c1ccccc1)c1cccnn1 (centres undefined) | 161 to 163 |
| C=CC(=O)NC(=O)NCCS(=O)(=O)C=C | 177 to 179 |
| CN(C)c1cc(C(=O)CS(C)(=O)=O)cc(N(C)C)c1 | 151 to 153 |
| O[C@@H]1CN=C(c2ccccc2F)O[C@H]1c1ccccc1 (racemic) | 142 |
| C=CCc1cc(C(C)=O)c(O)cc1OCCCCC | 54 |
| Nc1c(OCc2ccccc2)cc(Br)cc1[N+](=O)[O-] | 90 |
| CC(=NO)c1cc2c3ccccc3[nH]c(=O)n2n1 | 340 to 342 |
| N#CC1=C(c2cccs2)Nc2n[nH]cc2C1c1ccccc1[N+](=O)[O-] (centres undefined) | 165 |
| O=c1c(-c2ccccc2)cc(CO)c2n1CCc1ccsc1-2 | 199 to 200 |
| O=[N+]([O-])c1ccc2[nH]c(/C=C/c3ccoc3)nc2c1 | 230 to 233 |
| COc1ccc(C(=O)O)c2c1CCCC2 | 214 to 215 |
| Cc1ccnc2c(N)cc3c(c12)OCO3 | 118 to 120 |

Other lines, results leading:

| melting point [°C] | SMILES |
| --- | --- |
| 129 to 130 | O=C(NC(=O)N(SC(Cl)(Cl)Cl)c1ccc(C(F)(F)F)cc1)c1c(F)cccc1F |
| 148 | O=C(Nc1ccc2ccc(Oc3ccc(Cl)cc3)nc2n1)c1ccccc1 |
| 214 to 216 | CC1(C)OC(=O)Nc2ccc(-c3ccccc3-c3ncsn3)cc21 |
| 206 to 209 | COc1ccc(C(NC(=O)C(C)c2ccccc2)c2cccc(Nc3c(N)c(=O)c3=O)c2)cc1 (centres undefined) |
| 187 to 188 | CC1(C)CCC(C)(C)c2cc(Sc3ccc(C(=O)O)cc3)ccc21 |
| 171 to 172 | CCC(=O)Nc1c(C(=O)c2cc(CO)co2)[nH]c2cc(Cl)ccc12 |
| 115 to 116 | CC(C)=CCc1c(O)ccc(CCCc2ccc(O)cc2)c1O |
| 135 to 140 | CC(=O)NC[C@H]1CN(c2ccc(N3C[C@H]4CN(C(=O)OCc5ccccc5)C[C@H]4C3)cc2)C(=O)O1 |
| 80 to 81 | CC(C)(C)c1nnc(Oc2ccc(N)cc2)o1 |
| 159 | CC(C)N(Cc1ccccc1)S(=O)(=O)N[C@@H](Cc1ccc(NC(=O)c2c(Cl)cccc2Cl)cc1)C(=O)O |
| 215 to 220 | CC(C)(C)N1C(=O)c2nc(Cl)cc(N)c2C1=O |
| 269 to 274 | Nc1cccc2c1CN(c1c(F)cc3c(=O)c(C(=O)O)cn(-c4ccc(F)cc4)c3c1F)C2 |
| 158 | Cc1cc(C)c2cccc(OCc3c(Cl)ccc(S(=O)(=O)N4CCC[C@H]4C(=O)N4CCN(C(=O)c5cccc(C=NN)c5)CC4)c3Cl)c2n1 |
| 98 to 100 | CCOC(=O)C(Cl)=Cc1cc(-n2ncc(C(F)(F)F)cc2=O)ccc1Cl |
| 194 to 198 | O=C1CN(c2cccc(Cl)c2)C(=O)N1S(=O)(=O)c1ccc2ccccc2c1 |
| 187 to 191 | O=C(c1ccccc1)c1ccc(Nc2ccccc2NC(=O)C(F)(F)F)cc1 |
| 137 to 138 | CCN1CCN(C(C)C(=O)NC2(c3ccc4occc4c3)C(=O)Nc3cc(Cl)cc(Cl)c32)CC1 (single isomer, unassigned; (+)) |
| 272 to 273 | CC(=O)NCCNC(=O)c1[nH]c(C)c(-c2nc3ccc(C(=O)c4ccccc4)cc3[nH]2)c1C |
| 168 | O=C(O)Cc1nn(Cc2nc3cccc(Cl)c3s2)c(=O)c2ccccc12 |
| 157 to 159 | COc1ccc2c(c1OCc1ccccc1)CC(C(=O)O)N(C(=O)C(c1ccccc1)c1ccccc1)C2 (racemic) |
| 79 to 82 | Cc1nc(-c2ccc(C(F)(F)F)cc2)sc1C(=O)N[C@H](C)[C@](O)(Cn1cncn1)c1ccc(F)cc1F |
| 196 to 200 | CC(C)(C)c1cc2oc(-c3ccc(S(N)(=O)=O)cc3)c(-c3ccc(F)cc3)n2n1 |
| 104 to 114 | CC(C)(C)C(=O)OCn1cnc2ccc(CBr)cc2c1=O |

| melting point [°C] | SMILES |
| --- | --- |
| 102 | O=C(c1ccccc1)c1cnc2c(cnn2Cc2ccco2)c1O |
| 188 to 189 | O=C(O)c1cc(SCc2ccccc2)c(-c2ccccc2)c([N+](=O)[O-])c1 |
| 171 to 173 | COc1ccc(-c2nc(CO)c[nH]2)cc1 |
| 140 | O=C(c1ccc(O)cc1)c1ccc(Cl)cc1Cl |
| 238 to 241 | NC1=C(N=O)C(=O)N2CCN=C2N1Cc1ccc(Cl)cc1 |
| 123 to 125 | O=C(O)CCOc1cccc2c1CCc1sc(SCC(c3ccccc3)c3ccccc3)nc1-2 |
| 282 to 285 | O=[N+]([O-])c1ccc(-c2c(Cl)ncnc2NS(=O)(=O)c2ccc(Cl)cc2)cc1 |
| 251 to 257 | O=C(O)c1cn(-c2ccc(F)cc2F)c2c(F)c(N3Cc4ccc(Br)cc4C3)c(F)cc2c1=O |
| > 260 | O=C(O)c1ccc(-c2ccc(Cl)cc2)nc1 |
| 103 to 105 | CCc1ncnc2ccc(C#Cc3cc(OC)ccc3OC)cc12 |
| 281 to 283 | CCC(=O)OCc1ccc(-c2[nH]c(-c3cccc4ccccc34)nc2C(=O)Nc2nccs2)cc1 |
| 85 to 86 | COC(=O)C=Cc1ccc(OC)cc1 |
| 248 | O=C(NC1CCOCC1)c1ccc(-c2cc(-c3c[nH]nc3-c3ccccn3)ccn2)cc1 |
| 132 to 134 | CCCOc1cc(CCCOc2nn(Cc3ccccc3)cc2CC(=O)O)n(Cc2ccc(Cl)cc2Cl)n1 |
| 266 | CCOC(=O)c1cnc2ccccc2c1O |
| 102 to 103 | CCCC[C@H](NC(=O)[C@H](CC(C)C)NC(=O)c1cc2cccc(F)c2o1)C(=O)CSCc1ccco1 |
| 140 to 141 | Cc1ccc(Cc2cnc(NCCCCc3ncc(Cl)cc3C)[nH]c2=O)cn1 |
| 228 to 230 | CNC(=O)CC(C)(C)c1ccc(C(=O)Nc2cn3cc(Cl)ccc3n2)cc1 |
| 209 to 211 | COc1cc(-c2ccccc2Cl)c(Cl)cc1C(=O)N1Cc2cccn2Cc2ccccc21 |
| 193 to 195 | Cc1ccc(NC(=O)N(C)Cc2cccc3c2C(=O)N(C2CCC(=O)NC2=O)C3=O)cc1Cl (centres undefined) |
| 155 to 157 | Cc1ccc(-c2cn(C)cc(-c3cccc(C)c3)c2=O)cc1 |
| 130 to 132 | CCOC(=O)c1c(C)nc(-c2ccccc2)nc1-c1cc([N+](=O)[O-])ccc1S(C)=O (centres undefined) |
